Earlier results, collected in patent publication US20250288673A1, “GENE THERAPY FOR THE TREATMENT OF ACTIVATED PI3KINASE DELTA SYNDROME TYPE 1 (APDS1)” (Cellectis SA, priority 2022, published 2025).

What was measured:
[1] = after administration; cited from earlier work
[2] = tested on: PI3Kδ; details: APDS1 treatment; cited from earlier work

Row | SMILES | side effects outside of the immune system [1] | effect on lymphadenopathy and immune B cell subpopulations [2]
1 | CO[C@H]1C[C@@H]2CC[C@@H](C)[C@@](O)(O2)C(=O)C(=O)N2CCCC[C@H]2C(=O)O[C@H]([C@H](C)C[C@@H]2CC[C@@H](O)[C@H](OC)C2)CC(=O)[C@H](C)/C=C(\C)[C@@H](O)[C@@H](OC)C(=O)[C@H](C)C[C@H](C)/C=C/C=C/C=C/1C [Rapamycin] | proteinuria was observed | 
2 | [O-][n+]1cccc(-c2nc3c(Cl)cccc3cc2[C@@H](Nc2ncnc3cccnc23)C(F)(F)F)c1 [Seletalisib] | liver toxicity | reduction in lymphadenopathy and normalization of immune B cell subpopulations
